Measured values reported in patent publication US10550105B2 (Ribon Therapeutics Inc., priority 2018, dated 2020).
pIC50: −log10 of the molar value.

biological target: PARP7 (Homo sapiens (Human), UniProt Q7Z3E1); assay: Enzymatic assay for inhibition of PARP7: TR-FRET displacement of biotinylated Probe A from the TIPARP active site; format: binding; conditions: Table A-1
Outline: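 Titrated compounds compete with the biotinylated probe; after an additional 30 min incubation at 25° C, time-delayed fluorescence (90 μs) is measured. Inhibition curves use a Hill coefficient that normally floats but may be held at 1.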

Sequence of PARP7 (Q7Z3E1 whole entry): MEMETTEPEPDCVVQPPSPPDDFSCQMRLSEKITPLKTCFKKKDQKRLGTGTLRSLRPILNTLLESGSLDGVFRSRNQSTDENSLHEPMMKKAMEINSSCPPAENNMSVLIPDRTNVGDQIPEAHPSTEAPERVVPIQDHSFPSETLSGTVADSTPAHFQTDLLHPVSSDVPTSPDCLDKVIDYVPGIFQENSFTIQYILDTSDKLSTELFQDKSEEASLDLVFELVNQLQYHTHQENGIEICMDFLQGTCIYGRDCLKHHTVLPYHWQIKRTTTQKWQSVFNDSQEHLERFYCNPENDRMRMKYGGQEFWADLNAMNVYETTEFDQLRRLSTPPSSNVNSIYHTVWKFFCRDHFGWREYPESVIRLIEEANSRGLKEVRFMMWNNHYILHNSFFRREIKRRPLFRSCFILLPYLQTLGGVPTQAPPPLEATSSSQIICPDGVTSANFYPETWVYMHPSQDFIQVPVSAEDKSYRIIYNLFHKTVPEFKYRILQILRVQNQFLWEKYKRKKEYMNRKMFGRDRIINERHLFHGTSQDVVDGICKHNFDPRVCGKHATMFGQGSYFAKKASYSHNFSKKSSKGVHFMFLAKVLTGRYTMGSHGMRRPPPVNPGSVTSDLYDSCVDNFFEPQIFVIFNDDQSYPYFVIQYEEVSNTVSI

| Compound | pIC50 |
| --- | --- |
| O=C(c1cccc(OCC2c3ccccc3CN2c2cn[nH]c(=O)c2C(F)(F)F)c1)N1CCN(c2ccccn2)CC1 (stereo not drawn) [Example 341, 5-(1-((3-(4-(Pyridin-2-yl)piperazine-1-carbonyl)phenoxy)methyl)isoindolin-2-yl)-4-(trifluoromethyl)pyridazin-3(2H)-one] | > 7.00 |
| O=C(O)c1cccc(OCC2c3ccccc3CN2c2cn[nH]c(=O)c2C(F)(F)F)c1 (stereo not drawn) [Example 342, 3-((2-(6-Oxo-5-(trifluoromethyl)-1,6-dihydropyridazin-4-yl)isoindolin-1-yl)methoxy)benzoic acid] | ≤ 6.00 |
| CN(CC1c2ccccc2CN1c1cn[nH]c(=O)c1C(F)(F)F)c1cccc(C(=O)N2CCN(c3ccc(C#N)cn3)CC2)c1 (stereo not drawn) [Example 343, 6-(4-(3-(Methyl((2-(6-oxo-5-(trifluoromethyl)-1,6-dihydropyridazin-4-yl)isoindolin-1-yl)methyl)amino)benzoyl)piperazin-1-yl)nicotinonitrile] | ≤ 6.00 |
| CN(CC1c2ccccc2CN1c1cn[nH]c(=O)c1C(F)(F)F)c1cccc(C(=O)N2CCN(c3ccccn3)CC2)c1 (stereo not drawn) [Example 344, 5-(1-((Methyl(3-(4-(pyridin-2-yl)piperazine-1-carbonyl)phenyl)amino)methyl)isoindolin-2-yl)-4-(trifluoromethyl)pyridazin-3(2H)-one] | 6.00 to 7.00 |
| CN(CC1c2ccccc2CN1c1cn[nH]c(=O)c1C(F)(F)F)c1cccc(C(=O)O)c1 (stereo not drawn) [Example 345, 3-(Methyl((2-(6-oxo-5-(trifluoromethyl)-1,6-dihydropyridazin-4-yl)isoindolin-1-yl)methyl)amino)benzoic acid] | ≤ 6.00 |
| COc1nccc2c1CN(c1cn[nH]c(=O)c1C(F)(F)F)C2 [Example 346, 5-(4-Methoxy-1,3-dihydro-2H-pyrrolo[3,4-c]pyridin-2-yl)-4-(trifluoromethyl)pyridazin-3(2H)-one] | > 7.00 |
| O=c1[nH]ncc(N2Cc3cccc(OC4CCN(CC(c5ccccc5)c5ccccc5)CC4)c3C2)c1C(F)(F)F [Example 347, 5-(4-((1-(2,2-Diphenylethyl)piperidin-4-yl)oxy)isoindolin-2-yl)-4-(trifluoromethyl)pyridazin-3(2H)-one] | > 7.00 |
| N#Cc1ccc(N2CCN(C(=O)c3cccc(NCC4c5ccccc5CN4c4cn[nH]c(=O)c4C(F)(F)F)c3)CC2)nc1 (stereo not drawn) [Example 348, 6-(4-(3-(((2-(6-Oxo-5-(trifluoromethyl)-1,6-dihydropyridazin-4-yl)isoindolin-1-yl)methyl)amino)benzoyl)piperazin-1-yl)nicotinonitrile] | > 7.00 |
| O=C(c1cccc(OC[C@H]2c3ccccc3CN2c2cn[nH]c(=O)c2C(F)(F)F)c1)N1CCN(c2ccccn2)CC1 [Example 350, (R)-5-(1-((3-(4-(Pyridin-2-yl)piperazine-1-carbonyl)phenoxy)methyl)isoindolin-2-yl)-4-(trifluoromethyl)pyridazin-3(2H)-one] | 6.00 to 7.00 |

More lines, now with the values ahead:

| pIC50 | Compound |
| --- | --- |
| 6.00 to 7.00 | O=C(c1cccc(NCC2c3ccccc3CN2c2cn[nH]c(=O)c2C(F)(F)F)c1)N1CCN(c2ccccn2)CC1 (stereo not drawn) [Example 351, 5-(1-(((3-(4-(Pyridin-2-yl)piperazine-1-carbonyl)phenyl)amino)methyl)isoindolin-2-yl)-4-(trifluoromethyl)pyridazin-3(2H)-one] |
| > 7.00 | N#Cc1ccc(N2CCN(C(=O)c3cncc(OCC4c5ccccc5CN4c4cn[nH]c(=O)c4C(F)(F)F)c3)CC2)nc1 (stereo not drawn) [Example 352, 6-(4-(5-((2-(6-Oxo-5-(trifluoromethyl)-1,6-dihydropyridazin-4-yl)isoindolin-1-yl)methoxy)nicotinoyl)piperazin-1-yl)nicotinonitrile] |
| > 7.00 | N#Cc1ccc(N2CCN(C(=O)c3cncc(OC[C@@H]4c5ccccc5CN4c4cn[nH]c(=O)c4C(F)(F)F)c3)CC2)nc1 [Example 353, (S)-6-(4-(5-((2-(6-Oxo-5-(trifluoromethyl)-1,6-dihydropyridazin-4-yl)isoindolin-1-yl)methoxy)nicotinoyl)piperazin-1-yl)nicotinonitrile] |
| 6.00 to 7.00 | N#Cc1ccc(N2CCN(C(=O)c3cncc(OC[C@H]4c5ccccc5CN4c4cn[nH]c(=O)c4C(F)(F)F)c3)CC2)nc1 [Example 354, (R)-6-(4-(5-((2-(6-Oxo-5-(trifluoromethyl)-1,6-dihydropyridazin-4-yl)isoindolin-1-yl)methoxy)nicotinoyl)piperazin-1-yl)nicotinonitrile] |
| > 7.00 | N#Cc1ccc(N2CCN(C(=O)c3cc(OCC4c5ccccc5CN4c4cn[nH]c(=O)c4C(F)(F)F)ccn3)CC2)nc1 (stereo not drawn) [Example 355, 6-(4-(4-((2-(6-Oxo-5-(trifluoromethyl)-1,6-dihydropyridazin-4-yl)isoindolin-1-yl)methoxy)picolinoyl)piperazin-1-yl)nicotinonitrile] |
| 6.00 to 7.00 | N#Cc1ccc(N2CCN(C(=O)c3cc(OC[C@H]4c5ccccc5CN4c4cn[nH]c(=O)c4C(F)(F)F)ccn3)CC2)nc1 [Example 356, (R)-6-(4-(4-((2-(6-Oxo-5-(trifluoromethyl)-1,6-dihydropyridazin-4-yl)isoindolin-1-yl)methoxy)picolinoyl)piperazin-1-yl)nicotinonitrile] |
| > 7.00 | N#Cc1ccc(N2CCN(C(=O)c3cc(OC[C@@H]4c5ccccc5CN4c4cn[nH]c(=O)c4C(F)(F)F)ccn3)CC2)nc1 [Example 357, (S)-6-(4-(4-((2-(6-Oxo-5-(trifluoromethyl)-1,6-dihydropyridazin-4-yl)isoindolin-1-yl)methoxy)picolinoyl)piperazin-1-yl)nicotinonitrile] |
| > 7.00 | N#Cc1cccnc1N1CCN(C(=O)c2cccc(OCC3c4ccccc4CN3c3cn[nH]c(=O)c3C(F)(F)F)c2)CC1 (stereo not drawn) [Example 358, 2-(4-(3-((2-(6-Oxo-5-(trifluoromethyl)-1,6-dihydropyridazin-4-yl)isoindolin-1-yl)methoxy)benzoyl)piperazin-1-yl)nicotinonitrile] |
| > 7.00 | N#Cc1cccnc1N1CCN(C(=O)c2cccc(OC[C@@H]3c4ccccc4CN3c3cn[nH]c(=O)c3C(F)(F)F)c2)CC1 [Example 359, (S)-2-(4-(3-((2-(6-Oxo-5-(trifluoromethyl)-1,6-dihydropyridazin-4-yl)isoindolin-1-yl)methoxy)benzoyl)piperazin-1-yl)nicotinonitrile] |
| ≤ 6.00 | N#Cc1cccnc1N1CCN(C(=O)c2cccc(OC[C@H]3c4ccccc4CN3c3cn[nH]c(=O)c3C(F)(F)F)c2)CC1 [Example 360, (R)-2-(4-(3-((2-(6-Oxo-5-(trifluoromethyl)-1,6-dihydropyridazin-4-yl)isoindolin-1-yl)methoxy)benzoyl)piperazin-1-yl)nicotinonitrile] |
| > 7.00 | N#Cc1cnc(N2CCN(C(=O)c3cccc(OCC4c5ccccc5CN4c4cn[nH]c(=O)c4C(F)(F)F)c3)CC2)nc1 (stereo not drawn) [Example 361, 2-(4-(3-((2-(6-Oxo-5-(trifluoromethyl)-1,6-dihydropyridazin-4-yl)isoindolin-1-yl)methoxy)benzoyl)piperazin-1-yl)pyrimidine-5-carbonitrile] |
| 6.00 to 7.00 | CN1CCN(C(=O)c2cccc(OCC3c4ccccc4CN3c3cn[nH]c(=O)c3C(F)(F)F)c2)CC1 (stereo not drawn) [Example 362, 5-(1-((3-(4-Methylpiperazine-1-carbonyl)phenoxy)methyl)isoindolin-2-yl)-4-(trifluoromethyl)pyridazin-3(2H)-one] |
